Test results: US8211929B2, “Pyrimidine derivatives as kinase modulators and method of use” (Exelixis, Inc., priority 2004, dated 2012)
Where two headings read alike, the source gives them in different places.

Key:
[1] = target: T1, IGF 3P (Homo sapiens, UniProt P08069); assay: IGF1R kinase assay (LCCA), IGF 3P; type: biochemical
T1 construct: human IGF1R kinase domain residues M954-C1367; made in house; host or cells: baculovirus expression (insect cells)
Summary of the method: (§1)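 Read-out is percent ATP remaining, detected by luciferase-luciferin luminescence after a 2 h ambient reaction. Reaction contained 4 nM IGF1R kinase domain (residues M954-C1367, baculovirus-made), 3 μM ATP (near KM), 4 μM poly EY, pH 7.5 with Mg2+/Mn2+. Ten inhibitor concentrations; IC50 by Hill-type curve fit.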

[2] = target: T2, (Homo sapiens, UniProt P08069); assay: IGF1R kinase assay (LCCA), IGF 0P; type: biochemical
T2 construct: human IGF1R kinase domain residues M954-C1367; made in house; host or cells: baculovirus expression (insect cells)
Summary of the method: as §1

T2 sequence (P08069 954-1367): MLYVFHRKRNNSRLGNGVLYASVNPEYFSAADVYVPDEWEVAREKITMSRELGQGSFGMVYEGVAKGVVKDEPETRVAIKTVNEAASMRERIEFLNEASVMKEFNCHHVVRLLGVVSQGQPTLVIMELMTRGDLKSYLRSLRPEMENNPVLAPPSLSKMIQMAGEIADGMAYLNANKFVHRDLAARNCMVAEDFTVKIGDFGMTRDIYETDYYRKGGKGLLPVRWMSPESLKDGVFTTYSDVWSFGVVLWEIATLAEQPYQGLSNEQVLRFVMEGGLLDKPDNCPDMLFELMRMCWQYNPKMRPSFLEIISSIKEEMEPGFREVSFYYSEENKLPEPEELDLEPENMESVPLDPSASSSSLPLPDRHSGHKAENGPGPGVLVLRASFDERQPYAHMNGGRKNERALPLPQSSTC
T1 sequence (P08069 954-1367): as above

SMILES	IC50 ([1]; IGF1R kinase LCCA assay)	IC50 ([2]; IGF1R kinase LCCA assay)	IC50 [1]	IC50 [2]
Cc1cc(Nc2cc(C3CC3)n[nH]2)nc(Nc2ccc(C3CCN(C(=O)OC(C)(C)C)CC3)cc2)n1 [Example 566]	500 to 5000 nM	500 to 5000 nM	–	–
Cc1cc(Nc2ccccc2)nc(Nc2ccc(N3CCOCC3)cc2)n1 [Example 567]	500 to 5000 nM	500 to 5000 nM	–	–
Cc1cc(Nc2cc(C3CC3)n[nH]2)nc(Nc2ccc(CCNC(=O)OC(C)(C)C)cc2)n1 [Example 568]	500 to 5000 nM	500 to 5000 nM	–	–
Cc1cc(Nc2cc(C3CC3)n[nH]2)nc(Nc2ccc(N3CCN(C)CC3)cc2)n1 [Example 569]	500 to 5000 nM	500 to 5000 nM	–	–
Cc1cc(Nc2cc(C3CC3)n[nH]2)nc(NCc2nc(C(=O)NCCc3cccc(Cl)c3)cs2)n1 [Example 570]	500 to 5000 nM	500 to 5000 nM	–	–
Cc1cc(Nc2cc(C3CC3)n[nH]2)nc(NCc2nc(C(=O)NCCc3ccccc3F)cs2)n1 [Example 571]	500 to 5000 nM	500 to 5000 nM	–	–
Cc1cc(Nc2cc(C3CC3)[nH]n2)nc(NC(c2ccccc2)c2nc(-c3ccccc3)co2)n1 (stereo not drawn) [Example 572]	500 to 5000 nM	500 to 5000 nM	–	–
Cc1cc(Nc2cc(C3CC3)[nH]n2)nc(OCc2cc(-c3ccccc3)no2)n1 [Example 584, N-(5-cyclopropyl-1H-pyrazol-3-yl)-6-methyl-2-{[(3-phenylisoxazol-5-yl)methyl]oxy}pyrimidin-4-amine]	–	–	500 to 5000 nM	50 to 500 nM
Cc1cc(CNc2nc(C)cc(Nc3cc(C4CC4)n[nH]3)n2)on1 [Example 600, N^4-(3-cyclopropyl-1H-pyrazol-5-yl)-6-methyl-N^2-[(3-methylisoxazol-5-yl)methyl]pyrimidine-2,4-diamine]	–	–	50 to 500 nM	50 to 500 nM
c1ccc(-c2cc(CNc3nc(Nc4cc(C5CC5)[nH]n4)cc(N4CCOCC4)n3)on2)nc1 [Example 612, N^4-(5-cyclopropyl-1H-pyrazol-3-yl)-6-morpholin-4-yl-N^2-[(3-pyridin-2-ylisoxazol-5-yl)methyl]pyrimidine-2,4-diamine]	–	–	< 50 nM	50 to 500 nM
CC(=O)N1CCN(c2cc(Nc3cc(C4CC4)[nH]n3)nc(NCc3cc(C(C)C)no3)n2)CC1 [Example 614, 6-(4-acetylpiperazin-1-yl)-N^4-(5-cyclopropyl-1H-pyrazol-3-yl)-N^2-{[3-(1-methylethyl)isoxazol-5-yl]methyl}pyrimidine-2,4-diamine]	–	–	< 50 nM	50 to 500 nM
CC(C)c1cc(CNc2nc(Nc3cc(C4CC4)[nH]n3)cc(N3CCN(S(C)(=O)=O)CC3)n2)on1 [Example 615, N^4-(5-cyclopropyl-1H-pyrazol-3-yl)-N^2-{[3-(1-methylethyl)isoxazol-5-yl]methyl}-6-[4-(methylsulfonyl)piperazin-1-yl]pyrimidine-2,4-diamine]	–	–	< 50 nM	50 to 500 nM
Cc1cc(Nc2cc(N3CCOCC3)nc(NCc3cc(-c4ccccc4)no3)n2)[nH]n1 [Example 617, N^4-(3-methyl-1H-pyrazol-5-yl)-6-morpholin-4-yl-N^2-[(3-phenylisoxazol-5-yl)methyl]pyrimidine-2,4-diamine]	–	–	< 50 nM	50 to 500 nM
Cc1cc(Nc2cc(N3CCN(C)CC3)nc(NCc3cc(-c4ccccc4)no3)n2)[nH]n1 [Example 618, 6-(4-methylpiperazin-1-yl)-N^4-(3-methyl-1H-pyrazol-5-yl)-N^2-[(3-phenylisoxazol-5-yl)methyl]pyrimidine-2,4-diamine]	–	–	< 50 nM	50 to 500 nM
Cc1cc(Nc2cc(OCCN3CCOCC3)nc(NCc3cc(-c4ccccc4)no3)n2)[nH]n1 [Example 619, N^4-(3-methyl-1H-pyrazol-5-yl)-6-[(2-morpholin-4-ylethyl)oxy]-N^2-[(3-phenylisoxazol-5-yl)methy]pyrimidine-2,4-diamine]	–	–	50 to 500 nM	50 to 500 nM

Continued, values first:

IC50 ([1]; IGF1R kinase LCCA assay)	IC50 ([2]; IGF1R kinase LCCA assay)	IC50 [1]	IC50 [2]	SMILES
–	–	< 50 nM	500 to 5000 nM	CC(C)c1cc(CNc2nc(Nc3cc(C(C)C)[nH]n3)cc(OCCN3CCOCC3)n2)on1 [Example 587, N-{[3-(1-methylethyl)isoxazol-5-yl]methyl}-N^4-[5-(1-methylethyl)-1H-pyrazol-3-yl]-6-[(2-morpholin-4-ylethyl)oxy]pyrimidine-2,4-diamine]
–	–	< 50 nM	50 to 500 nM	CC(C)c1cc(Nc2cc(OCCN3CCOCC3)nc(NCc3cc(-c4ccccc4)no3)n2)n[nH]1 [Example 588, N^4-[5-(1-methylethyl)-1H-pyrazol-3-yl]-6-[(2-morpholin-4-ylethyl)oxy]-N^2-[(3-phenylisoxazol-5-yl)methyl]pyrimidine-2,4-diamine]
–	–	< 50 nM	50 to 500 nM	CC(C)c1cc(Nc2cc(OCCN3CCCCC3)nc(NCc3cc(-c4ccccc4)no3)n2)[nH]n1 [Example 589, N^4-[3-(1-methylethyl)-1H-pyrazol-5-yl]-N^2-[(3-phenylisoxazol-5-yl)methyl]-6-[(2-piperidin-1-ylethyl)oxy]pyrimidine-2,4-diamine]
–	–	< 50 nM	50 to 500 nM	CC(C)c1cc(Nc2cc(N3CCN[C@@H](C)C3)nc(NCc3cc(-c4ccccc4)no3)n2)n[nH]1 [Example 591, N^4-[5-(1-methylethyl)-1H-pyrazol-3-yl]-6-[(3S)-3-methylpiperazin-1-yl]-N^2-[(3-phenylisoxazol-5-yl)methyl]pyrimidine-2,4-diamine]
–	–	< 50 nM	50 to 500 nM	CCN(CC)CCNc1cc(Nc2cc(C(C)C)[nH]n2)nc(NCc2cc(-c3ccccc3)no2)n1 [Example 592, N^4-[2-(diethylamino)ethyl]-N^6-[5-(1-methylethyl)-1H-pyrazol-3-yl]-N^2-[(3-phenylisoxazol-5-yl)methyl]pyrimidine-2,4,6-triamine]
–	–	< 50 nM	500 to 5000 nM	CC(C)c1cc(CNc2nc(Nc3cc(C4CC4)[nH]n3)cc(OCCN3CCOCC3)n2)on1 [Example 594, N^4-(5-cyclopropyl-1H-pyrazol-3-yl)-N^2-{[3-(1-methylethyl)isoxazol-5-yl]methyl}-6-[(2-morpholin-4-ylethyl)oxy]pyrimidine-2,4-diamine]
–	–	< 50 nM	50 to 500 nM	CC(C)c1cc(Nc2cc(OCCN3CCCCC3)nc(NCc3cc(C(C)C)no3)n2)[nH]n1 [Example 595, N^2-{[3-(1-methylethyl)isoxazol-5-yl]methyl}-N^4-[3-(1-methylethyl)-1H-pyrazol-5-yl]-6-[(2-piperidin-1-ylethyl)oxy]pyrimidine-2,4-diamine]
–	–	< 50 nM	50 to 500 nM	CC(C)c1cc(CNc2nc(Nc3cc(C4CC4)n[nH]3)cc(OCCN3CCCCC3)n2)on1 [Example 597, N^4-(3-cyclopropyl-1H-pyrazol-5-yl)-N^2-{[3-(1-methylethyl)isoxazol-5-yl]methyl}-6-[(2-piperidin-1-ylethyl)oxy]pyrimidine-2,4-diamine]
–	–	< 50 nM	50 to 500 nM	Cc1cc(CNc2nc(Nc3cc(C4CC4)n[nH]3)cc(N3CCOCC3)n2)on1 [Example 601, N^4-(3-cyclopropyl-1H-pyrazol-5-yl)-N^2-[(3-methylisoxazol-5-yl)methyl]-6-morpholin-4-ylpyrimidine-2,4-diamine]
–	–	< 50 nM	50 to 500 nM	Cc1cc(CNc2nc(Nc3cc(C4CC4)n[nH]3)cc(N3CCN(C)CC3)n2)on1 [Example 602, N^4-(3-cyclopropyl-1H-pyrazol-5-yl)-N^2-[(3-methylisoxazol-5-yl)methyl]-6-(4-methylpiperazin-1-yl)pyrimidine-2,4-diamine]
–	–	< 50 nM	50 to 500 nM	Fc1ccc(-c2cc(CNc3nc(Nc4cc(C5CC5)n[nH]4)cc(N4CCOCC4)n3)on2)cc1 [Example 604, N^4-(3-cyclopropyl-1H-pyrazol-5-yl)-N^2-{[3-(4-fluorophenyl)isoxazol-5-yl]methyl}-6-morpholin-4-ylpyrimidine-2,4-diamine]
–	–	< 50 nM	50 to 500 nM	CN1CCN(c2cc(Nc3cc(C4CC4)n[nH]3)nc(NCc3cc(-c4ccc(F)cc4)no3)n2)CC1 [Example 605, N^4-(3-cyclopropyl-1H-pyrazol-5-yl)-N^2-{[3-(4-fluorophenyl)isoxazol-5-yl]methyl}-6-(4-methylpiperazin-1-yl)pyrimidine-2,4-diamine]
–	–	< 50 nM	50 to 500 nM	Fc1ccc(-c2cc(CNc3nc(Nc4cc(C5CC5)n[nH]4)cc(OCCN4CCOCC4)n3)on2)cc1 [Example 606, N^4-(3-cyclopropyl-1H-pyrazol-5-yl)-N^2-{[3-(4-fluorophenyl)isoxazol-5-yl]methyl}-6-[(2-morpholin-4-ylethyl)oxy]pyrimidine-2,4-diamine]
–	–	< 50 nM	50 to 500 nM	CC(C)c1cc(Nc2cc(N3CCOCC3)nc(NCc3cc(-c4ccc(F)cc4)no3)n2)[nH]n1 [Example 607, N^2-{[3-(4-fluorophenyl)isoxazol-5-yl]methyl}-N^4-[3-(1-methylethyl)-1H-pyrazol-5-yl]-6-morpholin-4-ylpyrimidine-2,4-diamine]
–	–	< 50 nM	50 to 500 nM	CC(C)c1cc(Nc2cc(N3CCN(C)CC3)nc(NCc3cc(-c4ccc(F)cc4)no3)n2)[nH]n1 [Example 608, N^2-{[3-(4-fluorophenyl)isoxazol-5-yl]methyl}-N^4-[3-(1-methylethyl)-1H-pyrazol-5-yl]-6-(4-methylpiperazin-1-yl)pyrimidine-2,4-diamine]
–	–	< 50 nM	50 to 500 nM	CC(C)c1cc(Nc2cc(OCCN3CCOCC3)nc(NCc3cc(-c4ccc(F)cc4)no3)n2)[nH]n1 [Example 609]
–	–	< 50 nM	50 to 500 nM	Cc1cc(Nc2cc(C3CC3)[nH]n2)nc(NCc2cc(-c3cccnc3)no2)n1 [Example 610, N^4-(5-cyclopropyl-1H-pyrazol-3-yl)-6-methyl-N^2-[(3-pyridin-3-ylisoxazol-5-yl)methyl]pyrimidine-2,4-diamine]
–	–	< 50 nM	50 to 500 nM	CN1CCN(c2cc(Nc3cc(C4CC4)[nH]n3)nc(NCc3cc(-c4ccccn4)no3)n2)CC1 [Example 611, N^4-(5-cyclopropyl-1H-pyrazol-3-yl)-6-(4-methylpiperazin-1-yl)-N^2-[(3-pyridin-2-ylisoxazol-5-yl)methyl]pyrimidine-2,4-diamine]
